According to ChEMBL document CHEMBL5046228 (Eur J Med Chem, 2022):

How the values were obtained:
[1] = target: Epidermal growth factor receptor (Homo sapiens, UniProt P00533); assay: Inhibition of wild type EGFR (unknown origin) using flurogenic substrate in presence of ATP by HTRF assay
[2] = target: Epidermal growth factor receptor (Homo sapiens, UniProt P00533, C797S/T790M); assay: Inhibition of EGFR T790M/C797S double mutant (unknown origin) using flurogenic substrate in presence of ATP by HTRF assay
[3] = Selectivity index, ratio of IC50 Inhibition of wild type EGFR (unknown origin) to IC50 for Inhibition of EGFR T790M/C797S double mutant (unknown origin)
[4] = target: Epidermal growth factor receptor (Homo sapiens, UniProt P00533, EX19DEL); assay: Inhibition of EGFR del19 (unknown origin) using flurogenic substrate in presence of ATP by HTRF assay
NCI-H1975 [5] = assay: Induction of cell cycle arrest in human NCI-H1975 cells assessed as accumulation at G2/M phase at 2.5 uM after 36 hrs by PI staining based flow cytometry analysis (reference value: 43.1%); format: functional
NCI-H1299 [6] = assay: Induction of cell cycle arrest in human NCI-H1299 cells assessed as accumulation at G0/G1 phase at 2.5 uM after 36 hrs by PI staining based flow cytometry analysis (reference value: 70.2%); format: functional
NCI-H1975 [7] = assay: Induction of apoptosis in human NCI-H1975 cells assessed as increase in late apoptotic cells at 2.5 uM after 36 hrs by annexin-V-FITC/PI staining based flow cytometric analysis (reference value: 3.85%); format: functional
NCI-H1975 [8] = assay: Induction of apoptosis in human NCI-H1975 cells assessed as increase in viable cells at 2.5 uM after 36 hrs by annexin-V-FITC/PI staining based flow cytometric analysis (reference value: 94.6%); format: functional
NCI-H1299 [9] = assay: Induction of apoptosis in human NCI-H1299 cells assessed as increase in viable cells at 2.5 uM after 36 hrs by annexin-V-FITC/PI staining based flow cytometric analysis (reference value: 94.1%); format: functional
NCI-H1299 [10] = assay: Antiproliferative activity against human NCI-H1299 cells expressing wild type EGFR assessed as inhibition in cell viability after 72 hrs by CCK8 assay; format: functional, cell-based; conditions: NCI-H1299, 72 h
NCI-H1975 [11] = assay: Induction of cell cycle arrest in human NCI-H1975 cells assessed as accumulation at G0/G1 phase at 2.5 uM after 36 hrs by PI staining based flow cytometry analysis (reference value: 24.2%); format: functional
NCI-H1975 [12] = assay: Induction of apoptosis in human NCI-H1975 cells assessed as increase in necrotic cells at 2.5 uM after 36 hrs by annexin-V-FITC/PI staining based flow cytometric analysis (reference value: 0.35%); format: functional
NCI-H1299 [13] = assay: Induction of apoptosis in human NCI-H1299 cells assessed as increase in early apoptotic cells at 2.5 uM after 36 hrs by annexin-V-FITC/PI staining based flow cytometric analysis (reference value: 0.79%); format: functional
NCI-H1299 [14] = assay: Induction of apoptosis in human NCI-H1299 cells assessed as increase in necrotic cells at 2.5 uM after 36 hrs by annexin-V-FITC/PI staining based flow cytometric analysis (reference value: 0.75%); format: functional
NCI-H1299 [15] = assay: Induction of cell cycle arrest in human NCI-H1299 cells assessed as accumulation at G2/M phase at 2.5 uM after 36 hrs by PI staining based flow cytometry analysis (reference value: 5.6%); format: functional
NCI-H1299 [16] = assay: Induction of apoptosis in human NCI-H1299 cells assessed as increase in late apoptotic cells at 2.5 uM after 36 hrs by annexin-V-FITC/PI staining based flow cytometric analysis (reference value: 4.39%); format: functional
NCI-H1975 [17] = assay: Induction of cell cycle arrest in human NCI-H1975 cells assessed as accumulation at S phase at 2.5 uM after 36 hrs by PI staining based flow cytometry analysis (reference value: 32.7 %); format: functional
NCI-H1975 [18] = assay: Induction of apoptosis in human NCI-H1975 cells assessed as increase in early apoptotic cells at 2.5 uM after 36 hrs by annexin-V-FITC/PI staining based flow cytometric analysis (reference value: 1.24%); format: functional
A549 = assay: Antiproliferative activity against human A549 cells expressing wild type EGFR assessed as inhibition in cell viability after 72 hrs by CCK8 assay; format: functional, cell-based; conditions: A549, 72 h
NCI-H1299 [19] = assay: Induction of cell cycle arrest in human NCI-H1299 cells assessed as accumulation at S phase at 2.5 uM after 36 hrs by PI staining based flow cytometry analysis (reference value: 24.8%); format: functional
HCC827 = assay: Antiproliferative activity against human HCC827 cells expressing EGFR del119 mutant assessed as inhibition in cell viability after 72 hrs by CCK8 assay; format: functional, cell-based; conditions: HCC827, 72 h
in vitro [20] = conditions: human
NCI-H1975 [21] = assay: cells; format: functional, cell-based; conditions: Homo sapiens, NCI-H1975, 72 h
in vitro [22] = conditions: human; remark: listed apart in the source

Epidermal growth factor receptor (Homo sapiens, UniProt P00533, C797S/T790M), sequence (P00533 25-1210 T790M/C797S limits assumed): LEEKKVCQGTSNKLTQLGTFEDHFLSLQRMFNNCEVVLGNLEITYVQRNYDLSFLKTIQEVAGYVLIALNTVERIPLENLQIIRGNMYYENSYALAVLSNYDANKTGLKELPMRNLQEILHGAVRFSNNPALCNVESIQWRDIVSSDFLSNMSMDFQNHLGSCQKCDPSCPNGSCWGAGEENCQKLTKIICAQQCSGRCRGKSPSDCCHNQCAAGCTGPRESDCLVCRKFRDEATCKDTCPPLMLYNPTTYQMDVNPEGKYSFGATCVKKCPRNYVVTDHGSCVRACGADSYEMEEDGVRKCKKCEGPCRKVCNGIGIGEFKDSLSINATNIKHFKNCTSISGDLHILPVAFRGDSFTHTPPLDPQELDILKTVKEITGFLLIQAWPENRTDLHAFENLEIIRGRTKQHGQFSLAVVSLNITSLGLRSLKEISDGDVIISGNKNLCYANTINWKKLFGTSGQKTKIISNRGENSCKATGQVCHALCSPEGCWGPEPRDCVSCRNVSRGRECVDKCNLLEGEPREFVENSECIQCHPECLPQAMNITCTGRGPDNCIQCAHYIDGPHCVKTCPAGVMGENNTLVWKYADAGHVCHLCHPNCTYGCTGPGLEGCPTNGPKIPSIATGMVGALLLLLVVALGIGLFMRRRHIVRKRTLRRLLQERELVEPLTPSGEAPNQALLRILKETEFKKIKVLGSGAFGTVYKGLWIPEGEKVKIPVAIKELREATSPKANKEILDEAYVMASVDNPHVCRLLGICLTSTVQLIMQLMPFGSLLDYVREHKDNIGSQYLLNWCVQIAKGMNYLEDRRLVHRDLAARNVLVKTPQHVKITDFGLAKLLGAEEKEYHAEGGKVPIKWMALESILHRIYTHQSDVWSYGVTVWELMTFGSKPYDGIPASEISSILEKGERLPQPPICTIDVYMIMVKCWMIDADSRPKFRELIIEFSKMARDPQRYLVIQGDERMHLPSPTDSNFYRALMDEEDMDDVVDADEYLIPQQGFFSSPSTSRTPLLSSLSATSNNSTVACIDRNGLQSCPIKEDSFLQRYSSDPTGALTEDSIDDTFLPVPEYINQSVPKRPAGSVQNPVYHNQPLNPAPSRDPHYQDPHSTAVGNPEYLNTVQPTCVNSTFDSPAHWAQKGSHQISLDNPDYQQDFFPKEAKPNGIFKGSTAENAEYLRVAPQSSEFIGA
Epidermal growth factor receptor (Homo sapiens, UniProt P00533), sequence (P00533 whole entry): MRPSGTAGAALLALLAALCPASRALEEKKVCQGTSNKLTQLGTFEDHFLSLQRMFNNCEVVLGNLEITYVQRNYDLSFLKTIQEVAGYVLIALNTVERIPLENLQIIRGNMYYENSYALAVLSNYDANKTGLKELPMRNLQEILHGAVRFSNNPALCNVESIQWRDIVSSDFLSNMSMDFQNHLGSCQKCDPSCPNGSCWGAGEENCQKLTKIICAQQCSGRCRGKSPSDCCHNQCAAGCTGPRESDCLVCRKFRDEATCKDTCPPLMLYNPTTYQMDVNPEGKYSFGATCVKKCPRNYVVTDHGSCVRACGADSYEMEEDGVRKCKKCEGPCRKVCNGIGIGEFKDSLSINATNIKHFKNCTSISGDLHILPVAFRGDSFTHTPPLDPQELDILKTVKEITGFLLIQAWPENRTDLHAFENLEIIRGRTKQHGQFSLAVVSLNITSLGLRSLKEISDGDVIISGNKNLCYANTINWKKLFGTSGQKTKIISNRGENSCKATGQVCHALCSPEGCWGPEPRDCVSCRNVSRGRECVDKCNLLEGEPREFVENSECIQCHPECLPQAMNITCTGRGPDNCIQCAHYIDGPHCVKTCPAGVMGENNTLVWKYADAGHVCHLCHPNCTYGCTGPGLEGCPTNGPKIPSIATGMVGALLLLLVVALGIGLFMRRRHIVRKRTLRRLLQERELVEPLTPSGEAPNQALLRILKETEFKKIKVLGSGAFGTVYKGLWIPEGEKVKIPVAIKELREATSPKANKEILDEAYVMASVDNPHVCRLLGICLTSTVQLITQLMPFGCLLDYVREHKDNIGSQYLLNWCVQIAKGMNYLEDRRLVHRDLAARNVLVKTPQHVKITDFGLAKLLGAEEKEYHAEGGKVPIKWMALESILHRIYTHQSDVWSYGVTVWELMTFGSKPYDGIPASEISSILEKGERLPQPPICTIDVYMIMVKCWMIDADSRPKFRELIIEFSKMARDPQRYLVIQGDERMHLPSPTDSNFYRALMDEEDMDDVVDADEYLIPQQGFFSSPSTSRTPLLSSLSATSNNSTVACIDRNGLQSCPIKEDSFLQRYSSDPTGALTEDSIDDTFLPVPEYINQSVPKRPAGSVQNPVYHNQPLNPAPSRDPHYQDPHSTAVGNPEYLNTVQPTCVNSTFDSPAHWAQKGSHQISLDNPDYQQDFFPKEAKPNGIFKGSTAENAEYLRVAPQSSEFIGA
Epidermal growth factor receptor (Homo sapiens, UniProt P00533, EX19DEL), sequence (P00533 whole entry, looked up, stated change not applied): as the sequence (P00533 whole entry) above

Row | Structure (SMILES) | IC50 [1] | IC50 [2] | Ratio IC50 [3] | IC50 [4] | IC50 (NCI-H1299 [10]) | IC50 (A549) | IC50 (HCC827) | also measured
1 | C=CC(=O)Nc1cc(Nc2nccc(Nc3cn(C)nc3C)n2)c(OC)cc1N(C)CCN(C)C | 71.3 nM | 5.65 nM | 12.6 | 11.6 nM |  |  |  | 
2 | C=CC(=O)Nc1cc(Nc2nccc(Nc3ccn(C)n3)n2)c(OC)cc1N(C)CCN(C)CC(=O)OC | 952 nM | 42.4 nM | 22.5 | 106 nM |  |  |  | 
3 | C=CC(=O)Nc1cc(Nc2nccc(-c3cn(C)c4ccccc34)n2)c(OC)cc1N(C)CCN(C)C [OSIMERTINIB] |  |  |  |  | 2840 nM | 335 nM | 1.73 nM | Activity (NCI-H1975 [5]): 65.4%; Activity (NCI-H1299 [6]): 67.3%; Activity (NCI-H1975 [7]): 18.1%; Activity (NCI-H1975 [8]): 41.1%; Activity (NCI-H1299 [9]): 90.7%; Activity (NCI-H1975 [11]): 17.1%; Activity (NCI-H1975 [12]): 0.016%; Activity (NCI-H1299 [13]): 1.47%; Activity (NCI-H1299 [14]): 0.43%; Activity (NCI-H1299 [15]): 8.4%; Activity (NCI-H1299 [16]): 7.44%; Activity (NCI-H1975 [17]): 17.5%; Activity (NCI-H1975 [18]): 40.8%; Activity (NCI-H1299 [19]): 24.3%
4 | C=CC(=O)Nc1cc(Nc2nccc(Nc3ccn(C)n3)n2)c(OC)cc1N(C)CCN(C)C(=O)OC | 4930 nM | 502 nM | 9.84 | 288 nM |  |  |  | 
5 | C=CC(=O)Nc1cc(Nc2nccc(Nc3cn(C)c4ccccc34)n2)c(OC)cc1N(C)CCN(C)CC(=O)OC | 453 nM | 5.75 nM | 78.8 | 46.4 nM | 5300 nM | 5190 nM | 346 nM | selectivity ratio (in vitro [20]): 637; IC50 (NCI-H1975 [21]): 8.31 nM; selectivity ratio (in vitro [22]): 624
6 | C=CC(=O)Nc1cc(Nc2nccc(Nc3cn(C)c4ccccc34)n2)c(OC)cc1N(C)CCN(C)C(=O)C#CC | > 10000 nM | 58 nM | > 172 | 949 nM |  |  |  | 
7 | C=CC(=O)Nc1cc(Nc2nccc(Nc3cn(C)c4ccccc34)n2)c(OC)cc1N(C)CCN(C)Cc1ccc(Br)cc1 | 2470 nM | 8.13 nM | 304 | 143 nM | > 100000 nM | > 100000 nM | 6460 nM | selectivity ratio (in vitro [20]): 2640; IC50 (NCI-H1975 [21]): 29.7 nM; selectivity ratio (in vitro [22]): 2640
8 | C=CC(=O)Nc1cc(Nc2nccc(Nc3cnn(CC)c3)n2)c(OC)cc1N(C)CCN(C)C | 101 nM | 8.02 nM | 12.5 | 18.7 nM |  |  |  | 
9 | C=CCCN(C)CCN(C)c1cc(OC)c(Nc2nccc(Nc3cn(C)c4ccccc34)n2)cc1NC(=O)C=C | 42.7 nM | 2 nM | 21.3 | 13.1 nM | 1770 nM | 1380 nM | 24.7 nM | selectivity ratio (in vitro [20]): 881; IC50 (NCI-H1975 [21]): 2.01 nM; selectivity ratio (in vitro [22]): 687
10 | C=CC(=O)Nc1cc(Nc2nccc(Nc3cn(C)c4ccccc34)n2)c(OC)cc1N(C)CCN(C)C(=O)C=C | > 10000 nM | 36.6 nM | > 273 | 723 nM |  |  |  | 
11 | C=CC(=O)Nc1cc(Nc2nccc(Nc3cn(C)c4ccccc34)n2)c(OC)cc1N(C)CCN(C)C(=O)c1ccc(Br)cc1 | > 10000 nM | 12.5 nM | > 797 | 301 nM | > 100000 nM | > 100000 nM | 7150 nM | selectivity ratio (in vitro [20]): 3370; IC50 (NCI-H1975 [21]): 37.9 nM; selectivity ratio (in vitro [22]): 3370
12 | C=CC(=O)Nc1cc(Nc2nccc(Nc3cn(C)c4ccccc34)n2)c(OC)cc1N(C)CCN(C)Cc1ccccc1 |  |  |  |  | 3980 nM | 2610 nM | 117 nM | IC50 (NCI-H1975 [21]): 4.02 nM
13 | C=CC(=O)Nc1cc(Nc2nccc(Nc3cn(C)c4ccccc34)n2)c(OC)cc1N(C)CCN(C)CC(=C)C | 181 nM | 5.75 nM | 31.4 | 64 nM |  |  |  | 
14 | C#CCN(C)CCN(C)c1cc(OC)c(Nc2nccc(Nc3ccn(C)n3)n2)cc1NC(=O)C=C | 50.8 nM | 8.58 nM | 5.92 | 22.3 nM |  |  |  | 
15 | C=CC(=O)Nc1cc(Nc2nccc(Nc3cn(C)c4ccccc34)n2)c(OC)cc1N(C)CCN(C)C(=O)OC | 2910 nM | 12.3 nM | 235 | 213 nM |  |  |  | 
16 | C=CC(=O)Nc1cc(Nc2nccc(Nc3cnn(C)c3)n2)c(OC)cc1N(C)CCN(C)C | 495 nM | 21.4 nM | 23.1 | 54.3 nM |  |  |  | 
17 | C=CC(=O)Nc1cc(Nc2nccc(Nc3ccn(C)n3)n2)c(OC)cc1N(C)CCN(C)C | 96.5 nM | 6.2 nM | 15.6 | 12.6 nM |  |  |  | 
18 | C=CC(=O)Nc1cc(Nc2nccc(Nc3ccn(C)n3)n2)c(OC)cc1N(C)CCN(C)CC(=C)C | 3180 nM | 397 nM | 8.02 | 625 nM |  |  |  | 
